Test results published in patent publication US6716851B2, “Substituted 2-aryl-4-arylaminopyrimidines and analogs as activators or caspases and inducers of apoptosis and the use thereof” (Cytovia, Inc., priority 2000, dated 2004).

Columns and labels:
Type in all cases: cell-based
T47D cells = assay: Clonogenic survival of T47D cells; settings: Homo sapiens, 48 h treatment, colonies after 7-10 days, read-out: IC50 inhibition of clonogenic survival (colony forming ability), T47D
Protocol: (§1) T47D and MX-1 cells were grown according to the conditions according conditions recommended by American Type Culture Collection. In a well of a 96 well plate, 30,000 cells were seeded and treated with tested compound at the indicated concentrations for 48 hr in a 5% CO2-95% humidity incubator at 37° C. Control wells were treated with the same amount of solvent (DMSO) as the compound samples. After the 48 h treatment, the supernatant was removed to a sterile culture tube and the wells washed with phosphate buffered saline, and the adherent cells trypsinized for 5 min. The trypsinzed cells were added to the culture supernatant, cells were collected (1,200 rpm, 10 min), washed with phosphate buffered saline, and resuspended in fresh media. The cells were counted for trypan blue negative cells, and the cells diluted with fresh media to 1,000 cells/ml. To a well of a 24-well plate, 0.1 ml of the cell suspension was added along with 1 ml of fresh media (cell suspensions were passed through a 22G needle several times just before plating to form single cell suspensions). Plates are incubated in a 5% CO2-95% humidity incubator at 37° C. for 7-10 days. Colonies are counted when the sizes reached greater than 50 cells per colony. […] Colonies are rinsed with water and the colonies counted and the fraction surviving expressed as the percentage of the number of control colonies.

MDA-MB-435 cells = assay: Cell proliferation assay (GI50) in MDA-MB-435 cells; settings: Homo sapiens, MDA-MB-435, 48 h
Protocol: [Worded in the source for another cell line; this cell line is reported under the same test.] T-47D cells were grown and harvested as in Example 221. An aliquot of 90 μl of cells (2.2×10^4 cells/ml) was added to a well of a 96-well microtiter plate containing 10 μl of a 10% DMSO in RPMI-1640 media solution containing 1 nM to 100 μM of 4-(3-methoxyanilino)-2-(2-pyridinyl)-6-(trifluoromethyl)pyrimidine (0.1 nM to 10 μM final). An aliquot of 90 μl of cells was added to a well of a 96-well microtiter plate containing 10 μl of a 10% DMSO in RPMI-1640 media solution without compound as the control sample for maximal cell proliferation (AMax). The samples were mixed by agitation and then incubated at 37° C. for 48 h in a 5% CO2-95% humidity incubator. After incubation, the samples were removed from the incubator and 20 μl of CellTiter 96 AQueous One Solution Cell Proliferation^TM reagent (Promega) was added. The samples were mixed by agitation and incubated at 37° C. for 2-4 h in a 5% CO2-95% humidity incubator. Using an absorbance plate reader (Model 1420 Wallac Instruments), an initial reading (T=0) was made approximately 1-2 min after addition of the solution, employing absorbance at 490 nm. This determines the possible background absorbance of the test compounds. No absorbance for 4-(3-methoxyanilino)-2-(2-pyridinyl)-6-(trifluoromethyl)pyrimidine was found at 490 nm. After the 2-4 h incubation, the samples were read for absorbance as above (ATest). […]

MX-1 cells = assay: Clonogenic survival of MX-1 cells; settings: Homo sapiens, MX1; MX-1, 48 h treatment, colonies after 7-10 days; read-out: IC50 inhibition of clonogenic survival (colony forming ability), MX-1
Protocol: as §1

Which IC50 (T47D cells) does the source give for `COc1cccc(Nc2cc(C(F)(F)F)nc(-c3ccccn3)n2)c1` [Compound A, 4-(3-methoxyanilino)-2-(2-pyridinyl)-6-(trifluoromethyl)pyrimidine] here?
Its IC50 is ~100 nM.

What about the GI50 (MDA-MB-435 cells) of the same compound?
The GI50 was 4500 nM.

And the IC50 (MX-1 cells)?
The IC50 was ~300 nM.
